# Laboratory results taken from patent US10336762B2 (priority 2017, dated 2019).
# Read-outs that look alike come from different tables or passages of the source.
# Legend:
# [1] = system: TNFα; assay: cells; format: cell-based, human; settings: Homo sapiens, Monocyte, LPS-stimulated human monocytes, read-out: EC50 TNF
# [2] = target: IRAK4 enzyme (Homo sapiens (Human), UniProt Q9NWZ3); assay: biochemical; format: biochemical; settings: IRAK4 enzyme, 500 μM ATP
# Sequence of IRAK4 enzyme (Q9NWZ3 whole entry): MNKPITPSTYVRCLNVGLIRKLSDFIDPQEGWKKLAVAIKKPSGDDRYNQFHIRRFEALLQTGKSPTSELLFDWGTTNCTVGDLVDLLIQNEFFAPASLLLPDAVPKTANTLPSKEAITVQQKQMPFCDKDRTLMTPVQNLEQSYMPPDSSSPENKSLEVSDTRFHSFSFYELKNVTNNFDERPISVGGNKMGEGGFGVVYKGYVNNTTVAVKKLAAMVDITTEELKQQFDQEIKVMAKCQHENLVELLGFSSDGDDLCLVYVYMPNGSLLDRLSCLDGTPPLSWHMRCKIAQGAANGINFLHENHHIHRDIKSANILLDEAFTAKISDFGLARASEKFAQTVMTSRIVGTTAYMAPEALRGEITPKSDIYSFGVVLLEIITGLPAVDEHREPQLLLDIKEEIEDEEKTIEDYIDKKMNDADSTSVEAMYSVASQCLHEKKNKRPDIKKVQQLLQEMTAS
SMILES,EC50 ([1]; TNFα content) [nM],IC50 ([2]; TR-FRET) [nM],IC50 ([2]; TR-FRET (HTRF)) [nM],EC50 ([1]; TNFα by TR-FRET) [nM]
"CC(C)Nc1cc(-c2ccc3cc(C#N)cnn23)ncc1C(=O)NC1CC1CO (centres unmarked) [Example 45, 6-(3-cyanopyrrolo[1,2-b]pyridazin-7-yl)-N-(2-(hydroxymethyl)cyclopropyl)-4-(isopropylamino) nicotinamide]",255,10,,
"CC(C)(O)[C@H](F)CNC(=O)c1cnc(-c2ccc3cc(C#N)cnn23)cc1Nc1cncc(F)c1 [Example 600, (R)-6-(3-cyano-pyrrolo[1,2-b]pyridazin-7-yl)-N-(2-fluoro-3-hydroxy-3-methylbutyl)-4-((5-fluoropyridin-3-yl)amino)nicotinamide]",72,,< 1,
"CN(C)C(=O)NC12CCC(Nc3cc(-c4ccc5cc(C#N)cnn45)ncc3C(=O)NC[C@@H](F)C(C)(C)O)(CC1)CC2 [Example 272, (R)-6-(3-cyanopyrrolo[1,2-b]pyridazin-7-yl)-4-((4-(3,3-dimethylureido)bicyclo[2.2.2]octan-1-yl)amino)-N-(2-fluoro-3-hydroxy-3-methylbutyl)nicotinamide]",23,1,,
"CC(C)(O)[C@H](F)CNC(=O)c1cnc(-c2ccc3cc(C#N)cnn23)cc1NC1CC(Cc2cnco2)C1 (stereo partly drawn) [Example 636, (R)-6-(3-cyanopyrrolo[1,2-b]pyridazin-7-yl)-N-(2-fluoro-3-hydroxy-3-methylbutyl)-4-((3-(oxazol-5-ylmethyl)cyclobutyl)amino)nicotinamide]",33,,< 1,
"CC1(Nc2cc(-c3ccc4cc(C#N)cnn34)ncc2C(=O)NC[C@@H](F)C(C)(C)O)COC1 [Example 1, (R)-6-(3-cyanopyrrolo[1,2-b]pyridazin-7-yl)-N-(2-fluoro-3-hydroxy-3-methylbutyl)-4-((3-methyloxetan-3-yl)amino)nicotinamide]",32,< 1,,
"CNC(=O)c1cnc(-c2ccc3cc(C#N)cnn23)cc1NC12CCC(NC(C)=O)(CC1)CC2 [Example 482, 4-((4-acetamido-bicyclo[2.2.2]octan-1-yl)amino)-6-(3-cyano-pyrrolo[1,2-b]pyridazin-7-yl)-N-methylnicotinamide]",48,,1,
"CC(=O)N1C[C@H]2C[C@@H](Nc3cc(-c4ccc5cc(C#N)cnn45)ncc3C(=O)NC[C@@H](F)C(C)(C)O)C[C@H]2C1 [Example 246, 4-(((3aR,5r,6aS)-2-acetyl-octahydrocyclopenta[c]pyrrol-5-yl)amino)-6-(3-cyanopyrrolo[1,2-b]pyridazin-7-yl)-N-((R)-2-fluoro-3-hydroxy-3-methylbutyl)nicotinamide]",637,17,,
"COC(=O)N1CC[C@H](n2cc(Nc3cc(-c4ccc5cc(C#N)cnn45)ncc3C(=O)NC[C@@H](F)C(C)(C)O)cn2)C1 [Example 224, (S)-methyl 3-(4-((2-(3-cyanopyrrolo[1,2-b]pyridazin-7-yl)-5-(((R)-2-fluoro-3-hydroxy-3-methylbutyl)carbamoyl)pyridin-4-yl)amino)-1H-pyrazol-1-yl) pyrrolidine-1-carboxylate]",75,1,,
"CC(C)(O)[C@H](F)CNC(=O)c1cnc(-c2ccc3cc(C#N)cnn23)cc1N[C@@H]1CCCNC1 [Example 255, 6-(3-cyanopyrrolo[1,2-b]pyridazin-7-yl)-N-((R)-2-fluoro-3-hydroxy-3-methylbutyl)-4-(((R)-piperidin-3-yl)amino)nicotinamide]",1270,14,,
"CNC(=O)O[C@H]1C[C@H](Nc2cc(-c3ccc4cc(C#N)cnn34)ncc2C(=O)NC[C@@H](F)C(C)(C)O)C1 [Example 162, (1R,3r)-3-((2-(3-cyano-pyrrolo[1,2-b]pyridazin-7-yl)-5-(((R)-2-fluoro-3-hydroxy-3-methylbutyl)carbamoyl)pyridin-4-yl)amino)cyclobutyl methylcarbamate]",> 10000,376,,
"CC1(O)CCC(Nc2cc(-c3ccc4cc(C#N)cnn34)ncc2C(=O)NC[C@@H](F)C(C)(C)O)CC1 (stereo partly drawn) [Example 154, 6-(3-cyanopyrrolo[1,2-b]pyridazin-7-yl)-N-((R)-2-fluoro-3-hydroxy-3-methylbutyl)-4-(((1s,4S)-4-hydroxy-4-methyl-cyclohexyl)amino)nicotinamide]",34,< 1,,
"COc1cncc(Nc2cc(-c3ccc4cc(C#N)cnn34)ncc2C(=O)NC[C@@H](F)C(C)(C)O)c1 [Example 605, (R)-6-(3-cyanopyrrolo[1,2-b]pyridazin-7-yl)-N-(2-fluoro-3-hydroxy-3-methyl-butyl)-4-((5-methoxy-pyridin-3-yl)amino) nicotinamide]",24,,< 1,
"CC(C)(O)[C@H](F)CNC(=O)c1cnc(-c2ccc3cc(C#N)cnn23)cc1N[C@@]12CC[C@@H](C1)[C@@H](O)C2 [Example 504, 6-(3-cyanopyrrolo[1,2-b]pyridazin-7-yl)-N-((R)-2-fluoro-3-hydroxy-3-methylbutyl)-4-(((1S,3S,4S)-3-hydroxybicyclo[2.2.1]heptan-1-yl)amino) nicotinamide]",14,,< 1,
"COC(=O)N1CC(CNc2cc(-c3ccc4cc(C#N)cnn34)ncc2C(=O)NC[C@@H](F)C(C)(C)O)C1 [Example 906, (R)-methyl 3-(((2-(3-cyanopyrrolo[1,2-b]pyridazin-7-yl)-5-((2-fluoro-3-hydroxy-3-methylbutyl)carbamoyl)pyridin-4-yl)amino)methyl) azetidine-1-carboxylate]",,10,,186
"COC(=O)NC12CC(Nc3cc(-c4ccc5cc(C#N)cnn45)ncc3C(=O)NC[C@@H](F)C(C)(C)O)(C1)C2 [Example 507, (R)-methyl (3-((2-(3-cyanopyrrolo[1,2-b]pyridazin-7-yl)-5-((2-fluoro-3-hydroxy-3-methylbutyl)carbamoyl)pyridin-4-yl)amino)bicyclo[1.1.1]pentan-1-yl)carbamate]",27,,< 1,
"CC(N)(CCNc1cc(-c2ccc3cc(C#N)cnn23)ncc1C(=O)NC[C@@H](F)C(C)(C)O)C(F)F (stereo partly drawn) [Example 559, 4-((3-amino-4,4-difluoro-3-methylbutyl)amino)-6-(3-cyanopyrrolo[1,2-b]pyridazin-7-yl)-N-((R)-2-fluoro-3-hydroxy-3-methylbutyl)nicotinamide]",78,,1,
"CC(=O)N[C@H]1C[C@@H](Nc2cc(-c3ccc4cc(C#N)cnn34)ncc2C(=O)NC[C@@H](F)C(C)(C)O)C1 [Example 458, 4-(((1s,3S)-3-acetamidocyclobutyl)amino)-6-(3-cyano-pyrrolo[1,2-b]pyridazin-7-yl)-N-((R)-2-fluoro-3-hydroxy-3-methylbutyl)nicotinamide]",2470,,3,
"CC(C)(O)[C@H](F)CNC(=O)c1cnc(-c2ccc3cc(C#N)cnn23)cc1N[C@H]1CC[C@H](CN2CCOC2=O)CC1 [Example 715, 6-(3-cyanopyrrolo[1,2-b]pyridazin-7-yl)-N-((R)-2-fluoro-3-hydroxy-3-methylbutyl)-4-(((1r,4R)-4-((2-oxooxazolidin-3-yl)methyl)cyclohexyl)amino)nicotinamide]",57,,1,
"CC(C)(O)[C@H](F)CNC(=O)c1cnc(-c2ccc3cc(C#N)cnn23)cc1N[C@H]1C[C@H](CNC(=O)C2(F)CC2)C1 [Example 828, 6-(3-cyanopyrrolo[1,2-b]pyridazin-7-yl)-N-((R)-2-fluoro-3-hydroxy-3-methylbutyl)-4-(((1r,3R)-3-((1-fluorocyclopropane-1-carboxamido)methyl)cyclobutyl)amino) nicotinamide]",,< 1,,12
"CC(C)(O)CCNC(=O)c1cnc(-c2ccc3cc(C#N)cnn23)cc1NC12CCC(O)(CC1)CC2 [Example 355, 6-(3-cyanopyrrolo[1,2-b]pyridazin-7-yl)-N-(3-hydroxy-3-methylbutyl)-4-((4-hydroxy-bicyclo[2.2.2]octan-1-yl)amino)nicotinamide]",23,< 1,,
"Cn1ccnc1CNC(=O)c1cnc(-c2ccc3cc(C#N)cnn23)cc1NC12CCC(O)(CC1)CC2 [Example 928, 6-(3-cyanopyrrolo[1,2-b]pyridazin-7-yl)-4-((4-hydroxybicyclo[2.2.2]octan-1-yl)amino)-N-((1-methyl-1H-imidazol-2-yl)methyl)nicotinamide]",,1,,71
"CC(C)(O)[C@H](F)CNC(=O)c1cnc(-c2ccc3cc(C#N)cnn23)cc1Nc1ccc2[nH]ncc2c1 [Example 577, (R)-4-((1H-indazol-5-yl)amino)-6-(3-cyano-pyrrolo[1,2-b]pyridazin-7-yl)-N-(2-fluoro-3-hydroxy-3-methylbutyl) nicotinamide]",30,,< 1,
"CC(C)(O)[C@H](F)CNC(=O)c1cnc(-c2ccc3cc(C#N)cnn23)cc1NC12CCC(C(=O)N3CCC3)(CC1)CC2 [Example 408, (R)-4-((4-(azetidine-1-carbonyl)bicyclo[2.2.2]octan-1-yl)amino)-6-(3-cyanopyrrolo[1,2-b]pyridazin-7-yl)-N-(2-fluoro-3-hydroxy-3-methylbutyl)nicotinamide]",31,,1,
"CC(C)(O)[C@H](F)CNC(=O)c1cnc(-c2ccc3cc(C#N)cnn23)cc1Nc1ccc(N2CCS(=O)(=O)CC2)cc1 [Example 688, (R)-6-(3-cyanopyrrolo[1,2-b]pyridazin-7-yl)-4-((4-(1,1-dioxidothiomorpholino)phenyl)amino)-N-(2-fluoro-3-hydroxy-3-methylbutyl) nicotinamide]",24,,< 1,
"CC(=O)NCc1cccc(Nc2cc(-c3ccc4cc(C#N)cnn34)ncc2C(=O)NC[C@@H](F)C(C)(C)O)c1 [Example 220, (R)-4-((3-(acetamidomethyl)phenyl)amino)-6-(3-cyanopyrrolo[1,2-b]pyridazin-7-yl)-N-(2-fluoro-3-hydroxy-3-methylbutyl)nicotinamide]",123,1,,
